According to US20240415804A1, “METHOD OF TREATING PANCREATIC CANCER” (University of South Florida, priority 2022, published 2024):

Key:
[1] = tested on: MDSC and macrophage subsets in the BM; assay: Flow cytometry of MDSC and macrophage subsets in the BM of KC-HPC mice; format: in vivo, mouse; settings: API 25 mg/kg IP
Excerpt: All female C57BL/6 mice (6-8 weeks of age) described in this study were purchased from Envigo (Indianapolis, IN, USA) and were acclimatize for one week in a pathogen-free animal facility (University of South Florida (USF) vivarium) before injections with PC cells. To generate heterotopic pancreatic cancer (HPC) models, mice were subcutaneously injected with 1.5×10^5 murine Panc02 (HPC mice) or 5×10^6 murine UN-KC-6141 cells (KC-HPC mice), in sterile 1× phosphate buffer saline (PBS), in the lower ventral abdomen, while control (CTRL) mice received sterile 1×PBS. Once tumors where palpable, API (25 mg/kg, 100 μL volume) treatments (HPC-API and KC-HPC-API), via intraperitoneal (IP) injections, were started while CTRL, HPC and KC-HPC mice received sterile PBS (vehicle) three times per week until the end of the study^12, 55. The HPC models were euthanized 21-28 days post-injection, while the KC-HPC models were euthanized 16-17 days post-injection. The femur and tibia were cut at the pelvic-hip joint and muscle was removed. The femurs and tibias were cut at the ends and flushed with a 30-gauge needle and 10 cc syringe filled with completed RPMI media until bone was white onto a petri dish. Pelleted bone marrow (BM) cells were treated with Red Blood Cell (RBC) lysis buffer (eBioscience, Waltham, MA, USA), according to the manufacturer's instructions, and then filtered through a […] nylon mesh cell strainer in 1×PBS. All pancreatic tumors were manually cut into ˜1-2 mm^3 fragments with a sterile razor blade and then enzymatically digested with Collagenase, type IV (Sigma-Aldrich), DNase, type IV (Sigma-Aldrich) and Hyaluronidase, Type V (Sigma-Aldrich) in Hank's Balanced Salt Solution for 1 h, spun down and washed as described in previous studies^61. Digested pancreatic tumor samples were treated with RBC lysis buffer and then filtered through a […] nylon mesh cell strainer in 1×PBS. Bone marrow and digested pancreatic tumor single cell suspensions were counted with a hemocytometer and then resuspended in 3% FBS/PBS. BM and digested pancreatic tumor cells (1×10^6) were Fc Blocked (anti-mouse CD16/CD32) and then surface stained for 30 min on ice protected from light with fluorescent anti-mouse antibodies including, CD11b-APC, Ly6C-PE/Cy7, Ly6G-PerCP, F4/80-BV650, MHC—II-BV605, CD206-FITC and CD40-PE/Cy5 along with isotype control antibodies (Biolegend, San Diego, CA, USA) to detect MDSC and macrophage subsets. Digested pancreatic tumor cells (1×10^6) were also Fc Blocked and then surface stained with fluorescent anti-mouse antibodies including CD3-FITC, CD8-PercP/Cy5.5, CD4-APC/Cy7, and CD40L-APC along with isotype control antibodies (Biolegend) to detect CD8^+ T cells. Subsequently, all samples were fixed with 2% paraformaldehyde for 15 min on ice protected from light. Acquisition of samples was performed using a flow cytometer BD LSRII (BD Biosciences Immunocytometry Systems). Data analysis was performed using FlowJo v10.8 software (TreeStar Inc.).

[2] = tested on: CD40; assay: Flow cytometry of CD40 expression on M1 TAM in tumors of KC-HPC mice; format: in vivo, mouse; settings: KC-HPC-API vs KC-HPC mice
Protocol: The inventors then assessed the expression of CD40 (a T cell co-stimulation marker) on M1 TAM (gated as MHC-II^+ and CD206) within the tumor from KC-HPC vs. KC-HPC-API mice. […] The femur and tibia were cut at the pelvic-hip joint and muscle was removed. The femurs and tibias were cut at the ends and flushed with a 30-gauge needle and 10 cc syringe filled with completed RPMI media until bone was white onto a petri dish. Pelleted bone marrow (BM) cells were treated with Red Blood Cell (RBC) lysis buffer (eBioscience, Waltham, MA, USA), according to the manufacturer's instructions, and then filtered through a […] nylon mesh cell strainer in 1×PBS. All pancreatic tumors were manually cut into ˜1-2 mm^3 fragments with a sterile razor blade and then enzymatically digested with Collagenase, type IV (Sigma-Aldrich), DNase, type IV (Sigma-Aldrich) and Hyaluronidase, Type V (Sigma-Aldrich) in Hank's Balanced Salt Solution for 1 h, spun down and washed as described in previous studies^61. Digested pancreatic tumor samples were treated with RBC lysis buffer and then filtered through a […] nylon mesh cell strainer in 1×PBS. Bone marrow and digested pancreatic tumor single cell suspensions were counted with a hemocytometer and then resuspended in 3% FBS/PBS. […]

With O=c1cc(-c2ccc(O)cc2)oc2cc(O)cc(O)c12 [API, 40,5,7-Trihydroxyflavone, 5,7-Dihydroxy-2-(4-hydroxyphenyl)-4-benzopyrone] the “G-MDSC absolute cell numbers in BM” value ([1]; vs KC-HPC mice) was “significantly lowered”, the “M1 macrophage percentages in BM” value ([1]; vs KC-HPC mice) was “significantly increased” and the “M1 macrophages absolute cell numbers in BM” value ([1]; vs KC-HPC mice) was “no significant changes”. For the same compound, the “M2 macrophage percentages in BM” value ([1]; vs KC-HPC mice) was “decreased”, the “M2 macrophages absolute cell numbers in BM” value ([1]; vs KC-HPC mice) was “no significant changes” and the “M-MDSC absolute cell numbers in BM” value ([1]; vs KC-HPC mice) was “significantly lowered”. The “proportions of G-MDSCs in BM” value ([1]; vs vehicle treated KC-HPC mice) was “significantly reduced”, the “proportions of M-MDSCs in BM” value ([1]; vs vehicle treated KC-HPC mice) was “without any significant change” and the “CD40 expression on M1 TAM in tumor” value [2] was “significantly upregulated”.
